Values quoted from earlier work as cited in patent US6576233B2 (priority 1996, dated 2003).

Assays:
people = settings: daily supplement, more than 1,300 people
[1] = Ferris et al. 1989

Q: What does the source list for `[Se]` [Selenium, selenium]?
A: reduction of overall cancer risk (people): ~40%; dosage reported as safe [1]: 600 micrograms per day
